Assays:
Type in all cases: cell-based
NCI-H226 cells = experiment: Cell growth inhibitory effect on human mesothelioma cell line (cell counting kit 8, 6 days); settings: NCI-H226, 144 h
Description: (§1) NCI-H226 cells, a human mesothelioma cell line (ATCC, CRL-5826), NCI-H322 cells, a human lung cancer cell line (the European Collection of Authenticated Cell Cultures, 95111734), OUTOKO cells, a human ovarian cancer cell line (JCRB cell bank, KRB1048) and […] were each subcultured by keeping the cell density under 80% in a RPMI1640 culture medium with 10% fetal bovine serum (FBS). NCI-H226 cells, NCI-H322 cells and SSP-25 cells were each suspended in the RPMI1640 culture medium mentioned above, and plated to a 96-well flat-bottom plate at 500 cells/well in each well, and incubated at 37° C. in an incubator with 5% CO2 for one day. After the incubation, the evaluation of cell growth inhibitory activity was started. OVTOKO cells were suspended in the RPMI1640 culture medium mentioned above, and plated to a 96-well flat-bottom plate at 250 cells/well in each well, and incubated it at 37° C. in an incubator with 5% CO2 for one day. After the incubation, the evaluation of the cell growth inhibitory activity was started. The next day, a test compound was serially diluted to 5 times of its final concentration in the RPM11640 culture medium mentioned above, and the diluted solution was added to each well. In this case, the final concentration of DMSO in each well was adjusted to 0.1%. After the test compound was added, cells were incubated at 37° C. in an incubator with 5% CO2 for 6 days. At the addition of the test compound and 6 days after the addition, the cell counting measurement was performed using a cell counting kit 8 (made by DOJINDO) according to a protocol equivalent to DOJINDO's recommendation. A reagent contained in the kit was added to each plate and color reaction was performed for 2 or 3 hours at 37° C. in an incubator with 5% CO2. After the reaction, an absorbance at wavelength of 450 nm was measured using a microplate reader. A growth inhibition rate was calculated according to the following formula, from which the concentration of a test compound at which cell growth was inhibited by 50% (GI50 value) was determined.

HuH28 cells = experiment: Cell growth inhibitory effect on human liver cancer cell line (cell counting kit 8, 6 days); settings: 144 h; human liver cancer cell line HuH28, 6 days incubation
Description: as §1

NCI-H322 cells = experiment: Cell growth inhibitory effect on human lung cancer cell line (cell counting kit 8, 6 days); settings: 144 h; human lung cancer cell line NCI-H322, 6 days incubation
Description: as §1

OVTOKO cells = experiment: Cell growth inhibitory effect on human ovarian cancer cell line (cell counting kit 8, 6 days); settings: 144 h, 6 days incubation
Description: as §1

SMILES	GI50 (NCI-H226 cells) [nM]	GI50 (HuH28 cells) [nM]	GI50 (NCI-H322 cells) [nM]	GI50 (OVTOKO cells) [nM]
C=CC(=O)NCc1ccc(Oc2ccc(C(F)(F)F)cc2)c2nc(-c3ccccc3)oc12 [Compound 246, N-([2-Phenyl-4-{4-(trifluoromethyl)phenoxy}benzo[d]oxazol-7-yl]methyl) acrylamide]	100 to 1000	< 3000	< 1000	–
C=CC(=O)NCc1ccc(Oc2ccc(C(F)(F)F)cc2)c2ncoc12 [Compound 247, N-([4-{4-(Trifluoromethyl)phenoxy}benzo[d]oxazol-7-yl]methyl)acrylamide]	< 100	< 3000	< 1000	≤ 3000
C=CC(=O)NC1COc2ccc(Oc3ccc(C(F)(F)F)cc3)cc21 (centres unmarked) [Compound 262, N-[5-{4-(Trifluoromethyl)phenoxy}-2,3-dihydrobenzofuran-3-yl]acrylamide]	< 100	–	< 1000	–
C=CC(=O)NC1COc2c(Oc3ccc(C(F)(F)F)cc3)cccc21 (centres unmarked) [Compound 264, N-[7-{4-(Trifluoromethyl)phenoxy}-2,3-dihydrobenzofuran-3-yl]acrylamide]	< 100	–	< 1000	–
C=CC(=O)NCc1ccc(Sc2ccc(C(F)(F)F)cc2)c2nc(C)oc12 [Compound 272, N-{(2-Methyl-4-[{4-(trifluoromethyl)phenyl}thio]benzo[d]oxazol-7-yl)methyl}acrylamide]	< 100	< 3000	< 1000	≤ 3000
C=CC(=O)NCc1ccc(Oc2ccc(C(F)(F)F)nc2)c2nc(C)oc12 [Compound 249, N-{(2-Methyl-4-[{6-(trifluoromethyl)pyridin-3-yl}oxy]benzo[d]oxazol-7-yl)methyl}acrylamide]	< 100	< 3000	< 1000	≤ 3000
C=CC(=O)NCc1ccc(Oc2ccc(C(F)(F)F)cc2)c2nc(C)oc12 [Compound 243, N-([2-Methyl-4-{4-(trifluoromethyl)phenoxy}benzo[d]oxazol-7-yl]methyl) acrylamide]	< 100	< 3000	< 1000	≤ 3000
C=CC(=O)NC1CC[C@H](Oc2ccc(Cl)cc2)c2nc(OC)ccc21 (stereo in doubt) [Compound 71, cis-N-{8-(4-Chlorophenoxy)-2-methoxy-5,6,7,8-tetrahydroquinolin-5-yl}acrylamide]	< 100	–	< 1000	≤ 3000
C=CC(=O)NCc1ccc(Oc2ccc(C(F)(F)F)cn2)c2oc(C)nc12 [Compound 284, N-{(2-Methyl-7-[{5-(trifluoromethyl)pyridin-2-yl}oxy]benzo[d]oxazol-4-yl)methyl}acrylamide]	< 100	< 3000	< 1000	≤ 3000
C=CC(=O)NCc1ccc(Oc2ccc(N(C)C)cc2)c2nc(C)oc12 [Compound 275, N-([4-{4-(Dimethylamino)phenoxy}-2-methylbenzo[d]oxazol-7-yl]methyl)acrylamide]	100 to 1000	< 3000	< 1000	≤ 3000
C=CC(=O)NC1COc2cc(Oc3ccc(C(F)(F)F)cc3)ccc21 (centres unmarked) [Compound 265, N-{6-[4-(Trifluoromethyl)phenoxy]-2,3-dihydrobenzofuran-3-yl}acrylamide]	100 to 1000	–	< 1000	–
C=CC(=O)Nc1cncc(OCC2CCC(F)(F)CC2)c1 [Compound 192]	100 to 1000	< 3000	< 1000	≤ 3000
C=CC(=O)NCc1ccc(Oc2ccc(C(F)(F)F)cc2)c2nc(C(C)C)oc12 [Compound 245, N-([2-Isopropyl-4-{4-(trifluoromethyl)phenoxy}benzo[d]oxazol-7-yl]methyl)acrylamide]	< 100	< 3000	< 1000	–
C=CC(=O)NC1CC[C@H](Oc2ccc(Cl)cc2)c2nc(Cl)ccc21 (stereo in doubt) [Compound 70, cis-N-{2-Chloro-8-(4-chlorophenoxy)-5,6,7,8-tetrahydroquinolin-5-yl}acrylamide]	< 100	–	< 1000	≤ 3000
C=CC(=O)NCc1ccc(/C=C/c2ccc(C(F)(F)F)cc2)c2nc(C)oc12 [Compound 273, (E)-N-([2-Methyl-4-{4-(trifluoromethyl)styryl}benzo[d]oxazol-7-yl]methyl)acrylamide]	100 to 1000	< 3000	–	≤ 3000
C=CC(=O)NC1COc2cc(C)c(Oc3ccc(C(F)(F)F)cc3)cc21 (centres unmarked) [Compound 266, N-{6-Methyl-5-[4-(trifluoromethyl)phenoxy]-2,3-dihydrobenzofuran-3-yl}acrylamide]	100 to 1000	–	< 1000	–
C=CC(=O)N[C@@H]1CC[C@H](Oc2ccc(C(F)(F)F)cc2)c2nc(C)ccc21 (relative stereo) [Compound 184, cis-N-[2-Methyl-8-{4-(trifluoromethyl)phenoxy}-5,6,7,8-tetrahydroquinolin-5-yl]acrylamide]	< 100	–	< 1000	≤ 3000
C=CC(=O)NCc1ccc(S(=O)(=O)c2ccc(C(F)(F)F)cc2)c2nc(C)oc12 [Compound 271, N-{(2-Methyl-4-[{4-(trifluoromethyl)phenyl}sulfonyl]benzo[d]oxazol-7-yl)methyl}acrylamide]	–	< 3000	–	≤ 3000
C=CC(=O)NC1CCOc2nc(Oc3ccc(C(F)(F)F)cc3)ccc21 (centres unmarked) [Compound 259, N-[7-{4-(Trifluoromethyl)phenoxy}-3,4-dihydro-2H-pyrano[2,3-b]pyridin-4-yl]acrylamide]	100 to 1000	–	< 1000	–
C=CC(=O)NCc1ccc(Oc2ccc(C(F)(F)F)nc2)c2nc(CC)oc12 [Compound 251, N-{(2-Ethyl-4-[{6-(trifluoromethyl)pyridin-3-yl}oxy]benzo[d]oxazol-7-yl)methyl}acrylamide]	< 100	< 3000	< 1000	–
C=CC(=O)NCc1ccc(Oc2ccc(C(F)(F)F)cc2)c2nc(C(F)(F)F)oc12 [Compound 248, N-([2-(Trifluoromethyl)-4-{4-(trifluoromethyl)phenoxy}benzo[d]oxazol-7-yl]methyl)acrylamide]	100 to 1000	–	< 1000	–
C=CC(=O)NCc1cc(Oc2ccc(C(F)(F)F)cc2)c2ncccc2c1 [Compound 214]	< 100	–	< 1000	–
C=CC(=O)N[C@@H]1CC[C@H](Oc2ccc(C(F)(F)F)cc2)c2cnccc21 (stereo in doubt) [Compound 228, N-[8-{4-(Trifluoromethyl)phenoxy}-5,6,7,8-tetrahydroisoquinolin-5-yl]acrylamide]	–	–	< 1000	–
C=CC(=O)NCc1ccc(Oc2ccc(C(F)(F)F)cn2)c2nc(CC)oc12 [Compound 252, N-{(2-Ethyl-4-[{5-(trifluoromethyl)pyridin-2-yl}oxy]benzo[d]oxazol-7-yl)methyl}acrylamide]	< 100	< 3000	< 1000	–
C=CC(=O)NC1CC[C@@H](Oc2ccc(C(F)(F)F)cc2)c2nc(Cl)ccc21 (stereo in doubt) [Compound 82, trans-N-[2-Chloro-8-{4-(trifluoromethyl)phenoxy}-5,6,7,8-tetrahydroquinolin-5-yl]acrylamide]	< 100	–	< 1000	≤ 3000
C=CC(=O)NCc1ccc(Oc2ccc(C(F)(F)F)cc2)c2oc(C)nc12 [Compound 253, N-([2-Methyl-7-{4-(trifluoromethyl)phenoxy}benzo[d]oxazol-4-yl]methyl)acrylamide]	< 100	< 3000	< 1000	–
C=CC(=O)NCc1ccc(Oc2ccc(C(F)(F)F)cc2)c2sc(C)nc12 [Compound 257, N-([2-Methyl-7-{4-(trifluoromethyl)phenoxy}benzo[d]thiazol-4-yl]methyl)acrylamide]	< 100	< 3000	< 1000	–
C=CC(=O)NC1CC[C@H](Oc2ccc(C(F)(F)F)cc2)c2nc(Cl)ccc21 (stereo in doubt) [Compound 76, cis-N-[2-Chloro-8-{4-(trifluoromethyl)phenoxy}-5,6,7,8-tetrahydroquinolin-5-yl]acrylamide]	< 100	–	< 1000	≤ 3000
C=CC(=O)NC1COc2c(Br)cc(Oc3ccc(C(F)(F)F)cc3)cc21 (centres unmarked) [Compound 263, N-[7-Bromo-5-{4-(trifluoromethyl)phenoxy}-2,3-dihydrobenzofuran-3-yl]acrylamide]	< 100	–	< 1000	–
C=CC(=O)NCc1ccc(OC2CCCCC2)c2nc(C)oc12 [Compound 276, N-[{4-(Cyclohexyloxy)-2-methylbenzo[d]oxazol-7-yl}methyl]acrylamide]	< 100	< 3000	–	≤ 3000
